Source: ChEMBL document CHEMBL5303573, “Mapping human microbiome drug metabolism by gut bacteria and their genes” (Nature, 2019)

Test: The drug is tested on Bacteroides fragilis strain: HMW610 for biotransformation. The drug concentrations were measured before and after a 12-h incubation by liquid-chromatography-coupled mass spectrometry (LC–MS)
Settings: 2 µM

Structure (SMILES)	Bacterial Biotransformation
C[N+]12CCC(CC1)C(OC(=O)C(O)(c1ccccc1)c1ccccc1)C2.[Br-] (stereo not given) [CLIDINIUM BROMIDE]	Compound NOT metabolized
CC(C)NCC(O)COc1ccc(COCCOC(C)C)cc1.CC(C)NCC(O)COc1ccc(COCCOC(C)C)cc1.O=C(O)/C=C/C(=O)O (stereo not given) [BISOPROLOL FUMARATE]	Compound NOT metabolized

Test: The drug is tested on Subdoligranulum variabile strain: DSM15176 for biotransformation. The drug concentrations were measured before and after a 12-h incubation by liquid-chromatography-coupled mass spectrometry (LC–MS)
Settings: 2 µM

Structure (SMILES)	Bacterial Biotransformation
O=C1CN2Cc3c(ccc(Cl)c3Cl)N=C2N1 [ANAGRELIDE]	Compound NOT metabolized
C[N+]12CCC(CC1)C(OC(=O)C(O)(c1ccccc1)c1ccccc1)C2.[Br-] (stereo not given) [CLIDINIUM BROMIDE]	Compound NOT metabolized
COc1cc(NC(C)CCCN)c2ncccc2c1.O=P(O)(O)O.O=P(O)(O)O (stereo not given) [PRIMAQUINE PHOSPHATE]	Compound NOT metabolized

Settings: roseburia intestinalis, 12 h, 2 µM
Description: The drug is tested on Roseburia intestinalis strain: L1-82 for biotransformation. The drug concentrations were measured before and after a 12-h incubation by liquid-chromatography-coupled mass spectrometry (LC–MS)

Structure (SMILES)	Bacterial Biotransformation
Clc1cccc(Cl)c1N=C1NCCN1 [CLONIDINE]	Compound NOT metabolized
C[N+]12CCC(CC1)C(OC(=O)C(O)(c1ccccc1)c1ccccc1)C2.[Br-] (stereo not given) [CLIDINIUM BROMIDE]	Compound NOT metabolized
COc1cc(NC(C)CCCN)c2ncccc2c1.O=P(O)(O)O.O=P(O)(O)O (stereo not given) [PRIMAQUINE PHOSPHATE]	Compound NOT metabolized
CC(C)NCC(O)COc1ccc(COCCOC(C)C)cc1.CC(C)NCC(O)COc1ccc(COCCOC(C)C)cc1.O=C(O)/C=C/C(=O)O (stereo not given) [BISOPROLOL FUMARATE]	Compound NOT metabolized

Test: The drug is tested on Collinsella intestinalis strain: DSM13280 for biotransformation. The drug concentrations were measured before and after a 12-h incubation by liquid-chromatography-coupled mass spectrometry (LC–MS)
Settings: 2 µM

Structure (SMILES)	Bacterial Biotransformation
Clc1cccc(Cl)c1N=C1NCCN1 [CLONIDINE]	Compound NOT metabolized
O=C1CN2Cc3c(ccc(Cl)c3Cl)N=C2N1 [ANAGRELIDE]	Compound NOT metabolized
C[N+]12CCC(CC1)C(OC(=O)C(O)(c1ccccc1)c1ccccc1)C2.[Br-] (stereo not given) [CLIDINIUM BROMIDE]	Compound NOT metabolized
COc1cc(NC(C)CCCN)c2ncccc2c1.O=P(O)(O)O.O=P(O)(O)O (stereo not given) [PRIMAQUINE PHOSPHATE]	Compound metabolized
CC(C)NCC(O)COc1ccc(COCCOC(C)C)cc1.CC(C)NCC(O)COc1ccc(COCCOC(C)C)cc1.O=C(O)/C=C/C(=O)O (stereo not given) [BISOPROLOL FUMARATE]	Compound NOT metabolized

Test: The drug is tested on Blautia hansenii strain: DSM20583 for biotransformation. The drug concentrations were measured before and after a 12-h incubation by liquid-chromatography-coupled mass spectrometry (LC–MS)
Settings: 2 µM

Structure (SMILES)	Bacterial Biotransformation
O=C1CN2Cc3c(ccc(Cl)c3Cl)N=C2N1 [ANAGRELIDE]	Compound metabolized
C[N+]12CCC(CC1)C(OC(=O)C(O)(c1ccccc1)c1ccccc1)C2.[Br-] (stereo not given) [CLIDINIUM BROMIDE]	Compound NOT metabolized

Settings: segatella copri, 12 h, 2 µM
Description: The drug is tested on Prevotella copri strain: DSM18205 for biotransformation. The drug concentrations were measured before and after a 12-h incubation by liquid-chromatography-coupled mass spectrometry (LC–MS)

Structure (SMILES)	Bacterial Biotransformation
Clc1cccc(Cl)c1N=C1NCCN1 [CLONIDINE]	Compound NOT metabolized
C[N+]12CCC(CC1)C(OC(=O)C(O)(c1ccccc1)c1ccccc1)C2.[Br-] (stereo not given) [CLIDINIUM BROMIDE]	Compound NOT metabolized
COc1cc(NC(C)CCCN)c2ncccc2c1.O=P(O)(O)O.O=P(O)(O)O (stereo not given) [PRIMAQUINE PHOSPHATE]	Compound metabolized
CC(C)NCC(O)COc1ccc(COCCOC(C)C)cc1.CC(C)NCC(O)COc1ccc(COCCOC(C)C)cc1.O=C(O)/C=C/C(=O)O (stereo not given) [BISOPROLOL FUMARATE]	Compound NOT metabolized

Test: The drug is tested on Escherichia coli strain: BW25113 for biotransformation. The drug concentrations were measured before and after a 12-h incubation by liquid-chromatography-coupled mass spectrometry (LC–MS)
Settings: 2 µM

Structure (SMILES)	Bacterial Biotransformation
Clc1cccc(Cl)c1N=C1NCCN1 [CLONIDINE]	Compound NOT metabolized
C[N+]12CCC(CC1)C(OC(=O)C(O)(c1ccccc1)c1ccccc1)C2.[Br-] (stereo not given) [CLIDINIUM BROMIDE]	Compound NOT metabolized
COc1cc(NC(C)CCCN)c2ncccc2c1.O=P(O)(O)O.O=P(O)(O)O (stereo not given) [PRIMAQUINE PHOSPHATE]	Compound metabolized

Test: The drug is tested on Bacteroides cellulosilyticus strain: DSM14838 for biotransformation. The drug concentrations were measured before and after a 12-h incubation by liquid-chromatography-coupled mass spectrometry (LC–MS)
Settings: 2 µM

Structure (SMILES)	Bacterial Biotransformation
Clc1cccc(Cl)c1N=C1NCCN1 [CLONIDINE]	Compound NOT metabolized
O=C1CN2Cc3c(ccc(Cl)c3Cl)N=C2N1 [ANAGRELIDE]	Compound NOT metabolized
CC(C)NCC(O)COc1ccc(COCCOC(C)C)cc1.CC(C)NCC(O)COc1ccc(COCCOC(C)C)cc1.O=C(O)/C=C/C(=O)O (stereo not given) [BISOPROLOL FUMARATE]	Compound NOT metabolized

Settings: bacteroides eggerthii, 12 h, 2 µM
Description: The drug is tested on Bacteroides eggerthii strain: DSM20697 for biotransformation. The drug concentrations were measured before and after a 12-h incubation by liquid-chromatography-coupled mass spectrometry (LC–MS)

Structure (SMILES)	Bacterial Biotransformation
O=C1CN2Cc3c(ccc(Cl)c3Cl)N=C2N1 [ANAGRELIDE]	Compound NOT metabolized
C[N+]12CCC(CC1)C(OC(=O)C(O)(c1ccccc1)c1ccccc1)C2.[Br-] (stereo not given) [CLIDINIUM BROMIDE]	Compound NOT metabolized
COc1cc(NC(C)CCCN)c2ncccc2c1.O=P(O)(O)O.O=P(O)(O)O (stereo not given) [PRIMAQUINE PHOSPHATE]	Compound NOT metabolized
CC(C)NCC(O)COc1ccc(COCCOC(C)C)cc1.CC(C)NCC(O)COc1ccc(COCCOC(C)C)cc1.O=C(O)/C=C/C(=O)O (stereo not given) [BISOPROLOL FUMARATE]	Compound NOT metabolized

Settings: akkermansia muciniphila, 12 h, 2 µM
Description: The drug is tested on Akkermansia muciniphila strain: ATCC BAA-835 for biotransformation. The drug concentrations were measured before and after a 12-h incubation by liquid-chromatography-coupled mass spectrometry (LC–MS)

Structure (SMILES)	Bacterial Biotransformation
Clc1cccc(Cl)c1N=C1NCCN1 [CLONIDINE]	Compound NOT metabolized
C[N+]12CCC(CC1)C(OC(=O)C(O)(c1ccccc1)c1ccccc1)C2.[Br-] (stereo not given) [CLIDINIUM BROMIDE]	Compound NOT metabolized
COc1cc(NC(C)CCCN)c2ncccc2c1.O=P(O)(O)O.O=P(O)(O)O (stereo not given) [PRIMAQUINE PHOSPHATE]	Compound NOT metabolized

Settings: bacteroides thetaiotaomicron, 12 h, 2 µM
Description: The drug is tested on Bacteroides thetaiotaomicron strain: VPI-5482 for biotransformation. The drug concentrations were measured before and after a 12-h incubation by liquid-chromatography-coupled mass spectrometry (LC–MS)

Structure (SMILES)	Bacterial Biotransformation
Clc1cccc(Cl)c1N=C1NCCN1 [CLONIDINE]	Compound metabolized
O=C1CN2Cc3c(ccc(Cl)c3Cl)N=C2N1 [ANAGRELIDE]	Compound NOT metabolized
C[N+]12CCC(CC1)C(OC(=O)C(O)(c1ccccc1)c1ccccc1)C2.[Br-] (stereo not given) [CLIDINIUM BROMIDE]	Compound NOT metabolized
CC(C)NCC(O)COc1ccc(COCCOC(C)C)cc1.CC(C)NCC(O)COc1ccc(COCCOC(C)C)cc1.O=C(O)/C=C/C(=O)O (stereo not given) [BISOPROLOL FUMARATE]	Compound NOT metabolized

Test: The drug is tested on Bacteroides sp. WH2 strain: WH2 for biotransformation. The drug concentrations were measured before and after a 12-h incubation by liquid-chromatography-coupled mass spectrometry (LC–MS)
Settings: bacteroides sp. wh2, 12 h, 2 µM

Structure (SMILES)	Bacterial Biotransformation
Clc1cccc(Cl)c1N=C1NCCN1 [CLONIDINE]	Compound NOT metabolized
O=C1CN2Cc3c(ccc(Cl)c3Cl)N=C2N1 [ANAGRELIDE]	Compound NOT metabolized
C[N+]12CCC(CC1)C(OC(=O)C(O)(c1ccccc1)c1ccccc1)C2.[Br-] (stereo not given) [CLIDINIUM BROMIDE]	Compound NOT metabolized
COc1cc(NC(C)CCCN)c2ncccc2c1.O=P(O)(O)O.O=P(O)(O)O (stereo not given) [PRIMAQUINE PHOSPHATE]	Compound NOT metabolized
CC(C)NCC(O)COc1ccc(COCCOC(C)C)cc1.CC(C)NCC(O)COc1ccc(COCCOC(C)C)cc1.O=C(O)/C=C/C(=O)O (stereo not given) [BISOPROLOL FUMARATE]	Compound NOT metabolized

Test: The drug is tested on Bifidobacterium breve strain: DSM20213 for biotransformation. The drug concentrations were measured before and after a 12-h incubation by liquid-chromatography-coupled mass spectrometry (LC–MS)
Settings: 2 µM

Structure (SMILES)	Bacterial Biotransformation
Clc1cccc(Cl)c1N=C1NCCN1 [CLONIDINE]	Compound NOT metabolized
O=C1CN2Cc3c(ccc(Cl)c3Cl)N=C2N1 [ANAGRELIDE]	Compound NOT metabolized
C[N+]12CCC(CC1)C(OC(=O)C(O)(c1ccccc1)c1ccccc1)C2.[Br-] (stereo not given) [CLIDINIUM BROMIDE]	Compound NOT metabolized
COc1cc(NC(C)CCCN)c2ncccc2c1.O=P(O)(O)O.O=P(O)(O)O (stereo not given) [PRIMAQUINE PHOSPHATE]	Compound metabolized
CC(C)NCC(O)COc1ccc(COCCOC(C)C)cc1.CC(C)NCC(O)COc1ccc(COCCOC(C)C)cc1.O=C(O)/C=C/C(=O)O (stereo not given) [BISOPROLOL FUMARATE]	Compound NOT metabolized

Settings: bacteroides thetaiotaomicron, 12 h, 2 µM
Remark: another data set of the same source
Description: The drug is tested on Bacteroides thetaiotaomicron strain: 7330 for biotransformation. The drug concentrations were measured before and after a 12-h incubation by liquid-chromatography-coupled mass spectrometry (LC–MS)

Structure (SMILES)	Bacterial Biotransformation
Clc1cccc(Cl)c1N=C1NCCN1 [CLONIDINE]	Compound metabolized
O=C1CN2Cc3c(ccc(Cl)c3Cl)N=C2N1 [ANAGRELIDE]	Compound NOT metabolized
C[N+]12CCC(CC1)C(OC(=O)C(O)(c1ccccc1)c1ccccc1)C2.[Br-] (stereo not given) [CLIDINIUM BROMIDE]	Compound NOT metabolized
CC(C)NCC(O)COc1ccc(COCCOC(C)C)cc1.CC(C)NCC(O)COc1ccc(COCCOC(C)C)cc1.O=C(O)/C=C/C(=O)O (stereo not given) [BISOPROLOL FUMARATE]	Compound NOT metabolized

Test: The drug is tested on Eubacterium ventriosum strain: ATCC27560 for biotransformation. The drug concentrations were measured before and after a 12-h incubation by liquid-chromatography-coupled mass spectrometry (LC–MS)
Format: ADME
Set-up: dose 2 uM, timepoint 0 vs 12 hours
Settings: 2 µM

Structure (SMILES)	Bacterial Biotransformation
Clc1cccc(Cl)c1N=C1NCCN1 [CLONIDINE]	Compound NOT metabolized
O=C1CN2Cc3c(ccc(Cl)c3Cl)N=C2N1 [ANAGRELIDE]	Compound NOT metabolized
C[N+]12CCC(CC1)C(OC(=O)C(O)(c1ccccc1)c1ccccc1)C2.[Br-] (stereo not given) [CLIDINIUM BROMIDE]	Compound NOT metabolized
CC(C)NCC(O)COc1ccc(COCCOC(C)C)cc1.CC(C)NCC(O)COc1ccc(COCCOC(C)C)cc1.O=C(O)/C=C/C(=O)O (stereo not given) [BISOPROLOL FUMARATE]	Compound NOT metabolized

Test: The drug is tested on Dorea formicigenerans strain: ATCC27755 for biotransformation. The drug concentrations were measured before and after a 12-h incubation by liquid-chromatography-coupled mass spectrometry (LC–MS)
Settings: 2 µM

Structure (SMILES)	Bacterial Biotransformation
Clc1cccc(Cl)c1N=C1NCCN1 [CLONIDINE]	Compound NOT metabolized
O=C1CN2Cc3c(ccc(Cl)c3Cl)N=C2N1 [ANAGRELIDE]	Compound NOT metabolized
C[N+]12CCC(CC1)C(OC(=O)C(O)(c1ccccc1)c1ccccc1)C2.[Br-] (stereo not given) [CLIDINIUM BROMIDE]	Compound NOT metabolized
CC(C)NCC(O)COc1ccc(COCCOC(C)C)cc1.CC(C)NCC(O)COc1ccc(COCCOC(C)C)cc1.O=C(O)/C=C/C(=O)O (stereo not given) [BISOPROLOL FUMARATE]	Compound NOT metabolized

Test: The drug is tested on Bacteroides vulgatus strain: ATCC8482 for biotransformation. The drug concentrations were measured before and after a 12-h incubation by liquid-chromatography-coupled mass spectrometry (LC–MS)
Settings: phocaeicola vulgatus, 2 µM

Structure (SMILES)	Bacterial Biotransformation
COc1cc(NC(C)CCCN)c2ncccc2c1.O=P(O)(O)O.O=P(O)(O)O (stereo not given) [PRIMAQUINE PHOSPHATE]	Compound NOT metabolized
CC(C)NCC(O)COc1ccc(COCCOC(C)C)cc1.CC(C)NCC(O)COc1ccc(COCCOC(C)C)cc1.O=C(O)/C=C/C(=O)O (stereo not given) [BISOPROLOL FUMARATE]	Compound NOT metabolized

Test: The drug is tested on Blautia luti strain: DSM14534 for biotransformation. The drug concentrations were measured before and after a 12-h incubation by liquid-chromatography-coupled mass spectrometry (LC–MS)
Format: ADME
Set-up: dose 2 uM, timepoint 0 vs 12 hours
Settings: 2 µM

Structure (SMILES)	Bacterial Biotransformation
Clc1cccc(Cl)c1N=C1NCCN1 [CLONIDINE]	Compound NOT metabolized
O=C1CN2Cc3c(ccc(Cl)c3Cl)N=C2N1 [ANAGRELIDE]	Compound NOT metabolized
C[N+]12CCC(CC1)C(OC(=O)C(O)(c1ccccc1)c1ccccc1)C2.[Br-] (stereo not given) [CLIDINIUM BROMIDE]	Compound NOT metabolized
CC(C)NCC(O)COc1ccc(COCCOC(C)C)cc1.CC(C)NCC(O)COc1ccc(COCCOC(C)C)cc1.O=C(O)/C=C/C(=O)O (stereo not given) [BISOPROLOL FUMARATE]	Compound NOT metabolized
